From ChEMBL document CHEMBL4265956, “Discovery of potent and selective Spleen Tyrosine Kinase inhibitors for the topical treatment of inflammatory skin disease” (Bioorg Med Chem Lett, 2018) come the findings set out here.

The structures appear in SMILES notation.

One data set in a line: physchem. The settings on record: buffer, pH 7.4.
Data set [1] can be described thus: Apparent permeability of the compound after 3 hrs by PAMPA. The data set is classed as ADME. (In general: PAMPA measures passive passage across an artificial lipid membrane.)
Data set [2] is described as follows: Drug uptake in human skin dermal layer administered topically after 6 hrs by LC-MS/MS analysis. It is filed as ADME, tissue-based, Dermis. The conditions noted are these: topical_or_ocular.
Data set [3] can be described thus: Drug uptake in human skin epidermal layer administered topically after 6 hrs by LC-MS/MS analysis. It is filed as ADME, tissue-based, Skin epidermis. The settings on record: topical_or_ocular.
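For logD in this document: lipophilicity determined by HPLC.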

In the case of `COc1cccc(-c2cc(C(C)=O)ccc2OCc2ccccn2)c1`, the logD (in general, lipophilicity at a set pH, counting ionised and neutral species) in the data set “physchem” was found to be 5.4.

In “physchem”, `COc1cccc(OCc2cnccn2)c1-c1ccc2c(c1)CCNCC2` came in with a logD of 2.2.

In the data set “physchem”, `COc1ccc(-c2cc(C(C)=O)ccc2OCc2ncccn2)cc1` yielded a logD of 4.5. In the data set “physchem”, `CC(=O)c1ccc(OCc2ccccn2)c(-c2ccc(CCN)cc2)c1` returned a log distribution coefficient (logD) of 2.1. In turn, `COc1ccc(-c2nc(C)ccc2OCc2ccccn2)cc1` registered a logD in the data set “physchem” of 5. For the compound `COc1ccc(-c2nc(C)ccc2OCc2ccc(C)cn2)cc1`, in the data set “physchem”, the logD came out at 5.5.

Turning to `COc1ccc(-c2cc(C)ccc2OCc2ccccn2)cc1`, the logD in the data set “physchem” was 6.8. The same measure, in the same setting: under `CC(=O)c1ccc(OCc2ccccn2)c(-c2ccc3c(c2)CNCC3)c1` stands 2.2.

Compound `COc1ccc(-c2cc(F)ccc2OCc2ccccn2)cc1` showed a logD in the data set “physchem” of 6.4. Consider `CC(=O)c1ccc(OCc2ccccn2)c(-c2ccc3c(c2)CCNCC3)c1`, for which, in the data set “physchem”, the logD was 2.3. Still for that read-out and setting: next, `COc1ccc(-c2cc(C(C)=O)ccc2OCc2ccncn2)cc1`: 4.5; `COc1ccc(OCc2cc(C)ccn2)c(-c2ccc3c(c2)CCNCC3)c1`: 3. Take `COc1ccc(-c2cc(OC)ccc2OCc2ccccn2)cc1`: the logD in “physchem” was found to be 6.

Turning to `CC(=O)c1ccc(OCc2ccccn2)c(-c2ccc3c(c2)CCNC3)c1`, in the data set “physchem”, the log distribution coefficient (logD) came out at 2.1.

Regarding `COc1ccc(-c2nc(C)ccc2OCc2cc(C)ccn2)cc1`, in data set [1], the Papp (usually a coefficient for how fast a substance crosses the barrier) at 3 h amounted to 33 ×10⁻⁶ cm/s. In “physchem”, the logD was 5.4.

Regarding `CCc1ccnc(COc2ccc(C(C)=O)cc2-c2ccc3c(c2)CCNCC3)c1`, in “physchem”, the logD was determined as 2.8.

Compound `COc1ccc(-c2cc(C(C)=O)ccc2OCc2ccccn2)cc1` showed a logD in “physchem” of 5.3. `CNC(=O)c1ccc(OCc2cc(C)ccn2)c(-c2ccc3c(c2)CCNCC3)c1` came in with a logD in the data set “physchem” of 1.9.

In the data set “physchem”, `COc1ccc(-c2ccc(OC)cc2OCc2ccccn2)cc1` yielded a logD of 6.2. Regarding `COc1ccc(-c2ccccc2OCc2ccccn2)cc1`, the logD in the data set “physchem” is 6.2. The compound `CCOc1ccnc(COc2ccc(C(C)=O)cc2-c2ccc3c(c2)CCNCC3)c1` came in with a logD in the data set “physchem” of 2.7.

For the compound `COc1ccc(-c2nc(C)ccc2OCc2cccc(C)n2)cc1`, the logD in “physchem” stood at 5.5. The same measure, in the same setting: next, `Cc1ccc(-c2ncccc2OCc2ccccn2)cc1`: 4.9; `CC(=O)c1ccc(OCc2ccccn2)c(-c2ccc(CN)cc2)c1`: 1.9. As to `CC(=O)c1ccc(OCc2cc(C)ccn2)c(-c2ccc3c(c2)CCNCC3)c1`, the Drug uptake in data set [2] stood at 0.43 µg; in data set [3] it was 5.52 µg. In “physchem”, this compound registered a logD of 2.5. As for `CC(=O)c1ccc(OCc2ccccn2)c(-c2cccc(C)c2)c1`, in “physchem”, the logD is 6. On the same count and under the same terms, next, `COc1ccc(-c2ccc(F)cc2OCc2ccccn2)cc1`: 6.6. In turn, `COc1ccc(-c2cc(C(C)=O)ccc2OCc2cnccn2)cc1` returned a logD in the data set “physchem” of 4.7. Same read-out and setting: next, `CC(=O)c1ccc(OCc2ccccn2)c(-c2ccc(C)cc2)c1`: 6.1; `COc1ccc(-c2cc(C(C)=O)ccc2OCc2cccnn2)cc1`: 4.1; `COc1ccc(-c2nc(C)ccc2OCc2ncccc2C)cc1`: 5.3.

With `COc1ccc(-c2ccc3c(c2)CCNCC3)c(OCc2cc(C)ccn2)c1`, in the data set “physchem”, the logD was found to be 3.

Take `CC(=O)c1ccc(OCc2ccccn2)c(-c2ccc3c(c2)CNCCC3)c1`: the logD in “physchem” is 2.3. Compound `CC(=O)c1ccc(OCc2ccccn2)c(-c2ccc3c(c2)CNC3)c1` gave a logD in “physchem” of 2.1. Regarding `COc1ccc(-c2c(C)cccc2OCc2ccccn2)cc1`, the log distribution coefficient (logD) in the data set “physchem” was found to be 6.7. The compound `CC(=O)c1ccc(OCc2ccccn2)c(-c2ccc(F)cc2)c1` returned a logD in the data set “physchem” of 5.6. As to `COc1cccc(OCc2cc(C)ccn2)c1-c1ccc2c(c1)CCNCC2`, the Drug uptake in data set [2] came to 0.38 µg; in data set [3], 9.34 µg. Further, the logD in “physchem” was found to be 3.1. In the case of `COc1ccc(-c2c(F)cccc2OCc2ccccn2)cc1`, the logD in the data set “physchem” stood at 6.2. Turning to `Cc1ccnc(COc2ccc(C)nc2-c2ccc3c(c2)CCNCC3)c1`, the Papp at 3 h in data set [1] came out at 43.5 ×10⁻⁶ cm/s.

For `COc1ccc(-c2c(OC)cccc2OCc2ccccn2)cc1`, the logD in the data set “physchem” worked out at 5.8.

For the compound `CC(=O)c1ccc(OCc2ccccn2)c(-c2ccc3c(c2)CCCNC3)c1`, the logD in “physchem” turned out to be 2.3. The same measure, in the same setting: under `Cc1ccnc(COc2ccc(C#N)cc2-c2ccc3c(c2)CCNCC3)c1` stands 2.8. `CC(=O)c1ccc(OCc2ccccn2)c(-c2ccccc2)c1` showed a logD in the data set “physchem” of 5. `Cc1ccc(-c2ccccc2OCc2ccccn2)cc1` showed a logD in “physchem” of 7.
